Reference: US20190117685A1, “PROCESS FOR THE IDENTIFICATION OF COMPOUNDS FOR TREATING CANCER” (FUNDACIÓN CENTRO NACIONAL DE INVESTIGACIONES ONCOLÓGICAS …, priority 2009, published 2019)
Non-standard residues stand in square brackets, D forms with d. Residues, ends and D or L forms follow the SMILES beside them. *: point of attachment. Sta = CC(C)C[C@H](N)[C@@H](O)CC(=O)O; Isovaleryl = CC(C)CC(=O)*; Cbz = O=C(OCc1ccccc1)*; CH2F = FC*

What was measured:
[1] = test system: SK-Mel-103 melanoma cells; test: GFP-LC3 foci fluorescence analysis of autophagy; format: cell-based, human; details: with BO-110 treatment, 12 h
Experimental: An eGFP-LC3 fusion cloned into the pCNA expression vector was a gift from Gabriel Nidiez (University of Michigan Cancer Center). eGFP-LC3 and the fragments eGFP-Rab7wt, eGFP-Rab7 T22N, eGFP-Rab5wt, eGFP-Cherry-LC3 and Cherry-LC3 were cloned into the pLVO-puro lentiviral vector for stable gene transfer. […] GFP-LC3-associated fluorescence emission was imaged using a LEICA™ AF6000 fluorescence microscope and images were analyzed by LAS AF V1.9 (Leica, Solms, Germany). For confocal real time microscopy, we used a LEICA™ TCS-SP2-AOBS-UV ultra-spectral microscope coupled to a CO2 and temperature-controlled incubation chamber. Images were analyzed by LCS (Leica, Solms, Germany). […] Co-localization images were analyzed with LAS AF V1.9 (Leica, Solms, Germany).
To address the role of autophagy in the response of melanoma to drugs, a discriminative analysis based in GFP-LC3 was used to screen commercially available chemotherapeutic drugs and immunomodulators. Melanoma cells were stably transfected with lentiviral vectors expressing derivatives of the autophagosomal LC3 marker with GFP, such as pLVO-eGFP-LC3.
Subsequent validation studies were performed on a panel of human cell lines of diverse genetic background (see below).

SK-Mel-147 = test: Cell death by trypan blue exclusion, SK-Mel-147; format: cell-based, human; details: for effect of antioxidant on cell death by BO-110: BO-110 plus ROS scavenger
SK-Mel-103 = test: Cell death by trypan blue exclusion, SK-Mel-103; format: cell-based, human
MDA-5 = MDA-5 proteolytic cleavage by immunoblotting; format: cell-based, human; details: SK-Mel-28 and SK-Mel-147 cell extracts
Experimental: This analysis was carried out by immunoblotting extracts from SK-Mel-28 and SK-Mel-147 cells treated with PEI, pIC or BO-110, after subjecting these extracts to electrophoresis. As a positive control for efficient induction of cell death bortezomib was used.

NOXA = NOXA protein levels by immunoblotting and densitometry; format: cell-based, human; details: SK-Mel-28 or SK-Mel-147 melanoma cells
MCL-1 = MCL-1 protein levels by immunoblotting; format: cell-based, human; details: melanoma cells
Experimental: To determine changes in protein levels, 2×10^6 cells were treated as indicated and harvested at different times after treatment. Total cell lysates were subjected to electrophoresis in 10, 12 or 4-15% gradient SDS gels under reducing conditions, and subsequently transferred to IMMOBILON-P® (0.45 um pore size hydrophobic polyvinylidene fluoride, PVDF) membranes (Millipore, Bedford, Mass., USA). Protein bands were detected by the ECL system (GE Healthcare, Buckinghamshire, UK).
Secondary antibodies were either anti-mouse or anti-rabbit from GE Healthcare. Image J was used to quantify changes in proteins levels induced by the different treatments, considering untreated controls as reference for basal expression.
To assess similarities and differences between bortezomib and pIC (naked or complexed with PEI), melanoma cells were incubated with each of these compounds and extracts were collected at different time points after treatment to assess the levels of NOXA, MCL-1, and other Bcl-2 family members (Bcl-xL or Bcl-2). Results are shown in FIGS. 9A, 9B, 9C, 9D, 9E, and 9F.

SK-Mel-19 = test: Cell death by trypan blue exclusion, SK-Mel-19; format: cell-based, human; details: doxorubicin 0.5 μg/ml, 30 h
Experimental: (§1) Cell viability assays in response to drug treatments were done after seeding melanocytes and melanoma cells at least 12 hours before drug treatment. The percentage of cell death at the indicated times and treatment concentrations was estimated by standard trypan blue exclusion assays as previously described (Wolter et al., 2007; Fernández et al., 2005).

SK-Mel-28 = test: Cell death by trypan blue exclusion, SK-Mel-28; format: cell-based, human; details: doxorubicin 0.5 μg/ml, 30 h
Experimental: as §1

SK-Mel-103 cells [2] = test: Confocal microscopy of autolysosomes, lysosomal activity and endosomes; format: cell-based, human
Text: An eGFP-LC3 fusion cloned into the pCNA expression vector was a gift from Gabriel Nidiez (University of Michigan Cancer Center). eGFP-LC3 and the fragments eGFP-Rab7wt, eGFP-Rab7 T22N, eGFP-Rab5wt, eGFP-Cherry-LC3 and Cherry-LC3 were cloned into the pLVO-puro lentiviral vector for stable gene transfer. Melanoma derived cells (i.e., SK-Mel-103) were infected with pLVO-eGFP-LC3 and selected with puromycin. GFP-LC3-associated fluorescence emission was imaged using a LEICA™ AF6000 fluorescence microscope and images were analyzed by LAS AF V1.9 (Leica, Solms, Germany). […] Images were analyzed by LCS (Leica, Solms, Germany). […] Co-localization images were analyzed with LAS AF V1.9 (Leica, Solms, Germany). […]
To independently monitor lysosomal activity during BO-110 treatment, cells were tested for the ability to process DQ-BSA (a derivative of BSA whose green fluorescence is quenched unless cleaved by proteolytic enzymes). […] Note that DQ-BSA emission was detected at the lysosomes, as indicated by colocalization with LYSOTRACKER® Red, a dye whose cell permeability is pH dependent and emits red fluorescence when incorporated into functional lysosomes acids). […]
Having determined that autophagosomes fuse to active lysosomes in response to BO-110, we assessed whether these organelles interacted with or were recruited to endosomes.

SK-Mel-103 cells [3] = test: Ultrastructural analysis by transmission electron microscopy; format: cell-based, human; details: 5-12 h after treatment
Experimental: For transmission electron microscopy (TEM), the indicated cell populations were rinsed with […] buffer, pH 7.5 and fixed in 2.5% glutaraldehyde for 1.5 h, and subsequently dehydrated and embedded in Spurr's resin. Then, the block was sectioned at 60-100 nm ultra thin sections and picked up on copper grids. For routine analysis ultrathin sections were stained with 2% uranyl acetate and lead citrate. Electron micrographs were acquired with a Philips CM-100 transmission electron microscope (FEI, Hillsbrough, Oreg.) and a KODAK™ 1.6 MEGAPLUS™ digital camera.
The GFP-LC3 focal staining in cells treated with BO-110 described in the previous paragraph is consistent with the formation of autophagosomes. However, to rule out possible unspecific aggregations of ectopically expressed GFP-LC3 (Klionsky et al., 2008), the response was analyzed independently by electron microscopy (FIG. 1D).

[4] = test system: melanoma cell lines (SK-Mel-19, -28, -103, -147, and B16); test: Cell death by trypan blue exclusion, melanoma cell lines; format: cell-based, human and murine; details: naked pIC versus PEI-complexed pIC
Experimental: as §1
With these lines, tests were conducted similar to those described in Example 1 for SK-Mel-103 cell line, to verify the sensitivity of each of these cells to pIC and PEI as independent agents or used in combination.

IFIT-1 [5] = test: IFIT-1 mRNA by quantitative PCR, B16 melanoma cells; format: cell-based, mouse
Experimental: (§2) Human interferon alpha was measured in culture supernatants by enzyme-linked immunoabsorbent assay (ELISA). The human IFN-α ELISA Kit and recombinant hIFN-α were purchased from PBL Interferon Source (Piscataway, N.Y.) and used according to the manufacturer's protocol. IFN-α expression level was measured from bone-marrow-derived macrophages (BMDMs) and B16 melanoma cells by real-time PCR. BMDMs were prepared, plated and treated as previously described (Celada et al., 1984). Real-time quantitative PCR analysis of IFIT-1 RNA transcripts was performed using TAQMAN® primer and probes obtained from Applied Biosystems on an Applied Biosystems 7700 sequence detector after normalization with […].
(§3) pIC is a classical inducer of IFN-driven cellular immunity (Wenzel et al., 2008). […] To assess this possibility, B16 melanoma cells and macrophages were tested for their ability to secrete and respond to IFN-α. […] This is expected, as these cells can efficiently sense viral dsRNA.

IFIT-1 [6] = test: IFIT-1 mRNA by quantitative PCR, bone-marrow-derived macrophages; format: cell-based
Experimental: as §2, §3

melanoma = details: naked pIC, clinical studies (Robinson et al., 1976); cited from earlier work
[7] = 20 hours after treatment with BO-110

In the case of Cn1cnc(N)c2ncnc1-2 [3-MA, 3-methyladenine], the “effect of autophagy inhibitor on GFP-LC3 foci / autophagosomes induced by BO-110” value [1] is reported as “blocked GFP-LC3 foci formation by BO-110”.

With Cc1c(C)c2c(c(C)c1O)CCC(C)(C(=O)O)O2 (stereo not drawn) [TROLOX™] the “effect of antioxidant on cell death by BO-110” value (“effect of antioxidant” for short) (SK-Mel-147) was “no significant effects”.

For CC(C)CC(=O)N[C@H](C(=O)N[C@H](C(=O)N[C@@H](CC(C)C)[C@@H](O)CC(=O)N[C@@H](C)C(=O)N[C@@H](CC(C)C)[C@@H](O)CC(=O)O)C(C)C)C(C)C [pepstatin A] (Isovaleryl-VV[Sta]A[Sta]-OH), the “reduction of the extent of cell death by BO-110” value (SK-Mel-103; [7]) was 50%.

For CCOC(=O)[C@H]1O[C@@H]1C(=O)N[C@@H](CC(C)C)C(=O)NCCC(C)C [E64d], the “reduction of the extent of cell death by BO-110” value (SK-Mel-103; [7]) was 50%.

With CC(C)C[C@H](NC(=O)[C@H](Cc1ccccc1)NC(=O)c1cnccn1)B(O)O [bortezomib, Bortezomib] the “induction of MDA-5 processing (30 kD band)” value (MDA-5) was “no effect on MDA-5 levels or processing”, the “NOXA induction (in words)” value (NOXA) was “activates NOXA potently” and the MCL-1 levels (MCL-1) was “induces a simultaneous accumulation of MCL-1”.

With COc1cccc2c1C(=O)c1c(O)c3c(c(O)c1C2=O)C[C@@](O)(C(=O)CO)C[C@@H]3O[C@H]1C[C@H](N)[C@H](O)[C@H](C)O1 [DOX, doxorubicin] the “DOX: response to doxorubicin, percentage of cell death” value (from here on “DOX … percentage of cell death”) (SK-Mel-103; SK-Mel-103, doxorubicin 0.5 μg/ml, 30 h) was “− (<30%)”, the “DOX … percentage of cell death” value (SK-Mel-19) was “++ (100-70)” and the “DOX … percentage of cell death” value (SK-Mel-28) was “− (<30%)”. The “DOX … percentage of cell death” value (SK-Mel-147; SK-Mel-147, doxorubicin 0.5 μg/ml, 30 h) was “− (<30%)”.

In the case of CCN(CC)CCCC(C)Nc1ccnc2cc(Cl)ccc12 (stereo not drawn) [chloroquine, Chloroquine], the “effect of autophagy inhibitor on GFP-LC3 foci / autophagosomes induced by BO-110” value [1] is reported as “autophagosomes accumulated”, the “inhibitory effect on cell death triggered by BO-110” value (SK-Mel-103; [7]) is reported as “blocked melanoma cell death triggered by BO-110” and the “lysosomal proteolysis: DQ-BSA cleavage” value (SK-Mel-103 cells [2]) is reported as “minimum of fluorescence emission due to DQ-BSA”.

In the case of polyinosine-polycytidylic acid [pIC], the “autophagosome formation (electron microscopy)” value (SK-Mel-103 cells [3]) is reported as “minimal activity as inducer of autophagy”, the “reduction of antimelanoma activity of pIC when PEI was not included” value [4] is reported as 70-80% and the “induction of MDA-5 processing (30 kD band)” value (MDA-5) is reported as “significantly lower levels”. For the same compound, the “NOXA induction (in words)” value (NOXA) was “failed to induce NOXA consistently or in a sustained manner”, the “induction of IFN target IFIT-1” value (IFIT-1 [5]) was “unable to induce IFIT-1” and the “induction of IFN target IFIT-1” value (IFIT-1 [6]) was “PEI was dispensable for pIC-mediated induction of IFN targets”. For the same compound, the “antitumoral effect for melanoma” value (melanoma) was “absence of antitumoral effect for melanoma”, the “induction of IFN” value (melanoma) was “low induction of IFN” and the stability (melanoma) was “low stability”.

With vitamin E the “effect of antioxidant” value (SK-Mel-147) was “no significant effects”.

With COC(=O)C[C@H](NC(=O)[C@H](C)NC(=O)[C@@H](NC(=O)OCc1ccccc1)C(C)C)C(=O)CF [z-VAD-fmk] (Cbz-Val-Ala-Asp(OMe)-CH2F) the “inhibition of BO-110 killing” value (SK-Mel-147; SK-Mel-147, BO-110 plus pan-caspase inhibitor) was 70%.

For O=S(=O)([O-])c1cc(O)c(O)c(S(=O)(=O)[O-])c1.[Na+].[Na+] [TIRON™], the “effect of antioxidant” value (SK-Mel-147) was “no significant effects”.

With IFN-α the “effect on melanoma cell viability” value (SK-Mel-103; high doses, 10 times over levels secreted after BO-110, 24 h) was “unable to affect melanoma cell viability”.
